What was measured:
[1] = Selectivity index, ratio of IC50 for recombinant human MAO-A to IC50 for recombinant human MAO-B
[2] = molecular target: T1, Amine oxidase [flavin-containing] B (Homo sapiens, UniProt P27338)
T1 sequence (P27338 whole entry): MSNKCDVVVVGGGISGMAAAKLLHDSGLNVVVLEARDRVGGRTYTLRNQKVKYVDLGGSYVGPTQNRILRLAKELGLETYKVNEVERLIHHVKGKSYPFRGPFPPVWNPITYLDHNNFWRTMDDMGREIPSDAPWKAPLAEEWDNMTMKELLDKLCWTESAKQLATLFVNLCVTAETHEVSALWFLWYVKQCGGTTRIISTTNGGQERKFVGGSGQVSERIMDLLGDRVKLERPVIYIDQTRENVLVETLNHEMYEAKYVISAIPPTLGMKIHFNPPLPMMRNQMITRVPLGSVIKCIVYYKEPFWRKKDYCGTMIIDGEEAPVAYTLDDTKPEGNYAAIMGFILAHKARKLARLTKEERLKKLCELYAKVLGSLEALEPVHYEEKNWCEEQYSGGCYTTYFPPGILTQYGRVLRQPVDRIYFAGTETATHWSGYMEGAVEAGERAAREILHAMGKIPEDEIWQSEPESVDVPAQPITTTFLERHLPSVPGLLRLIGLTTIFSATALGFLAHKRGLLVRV
Description: Inhibition of recombinant human MAO-B using p-benzylamine substrate preincubated for 15 mins before substrate addition measured after 20 mins by fluorescence assay

[3] = molecular target: T2, Amine oxidase [flavin-containing] A (Homo sapiens, UniProt P21397)
T2 sequence (P21397 whole entry): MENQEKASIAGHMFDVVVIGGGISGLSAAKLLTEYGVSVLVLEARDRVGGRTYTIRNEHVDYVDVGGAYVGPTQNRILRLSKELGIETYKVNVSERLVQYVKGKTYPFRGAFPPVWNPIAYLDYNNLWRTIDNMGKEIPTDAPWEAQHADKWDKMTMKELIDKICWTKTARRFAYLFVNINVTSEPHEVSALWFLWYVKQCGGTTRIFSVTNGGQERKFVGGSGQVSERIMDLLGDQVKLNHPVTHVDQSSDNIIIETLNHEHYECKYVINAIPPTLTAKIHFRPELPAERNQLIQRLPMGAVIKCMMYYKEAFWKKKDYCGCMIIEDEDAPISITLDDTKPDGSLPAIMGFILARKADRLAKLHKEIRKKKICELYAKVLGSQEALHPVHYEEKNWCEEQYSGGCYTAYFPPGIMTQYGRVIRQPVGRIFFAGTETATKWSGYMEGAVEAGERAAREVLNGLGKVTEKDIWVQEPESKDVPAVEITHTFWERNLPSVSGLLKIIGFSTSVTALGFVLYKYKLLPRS
Description: Inhibition of recombinant human MAO-A using p-tyramine substrate preincubated for 15 mins before substrate addition measured after 20 mins by fluorescence assay

Cholinesterase = Cholinesterase (Equus caballus, UniProt P81908)
Sequence of Cholinesterase (P81908 whole entry): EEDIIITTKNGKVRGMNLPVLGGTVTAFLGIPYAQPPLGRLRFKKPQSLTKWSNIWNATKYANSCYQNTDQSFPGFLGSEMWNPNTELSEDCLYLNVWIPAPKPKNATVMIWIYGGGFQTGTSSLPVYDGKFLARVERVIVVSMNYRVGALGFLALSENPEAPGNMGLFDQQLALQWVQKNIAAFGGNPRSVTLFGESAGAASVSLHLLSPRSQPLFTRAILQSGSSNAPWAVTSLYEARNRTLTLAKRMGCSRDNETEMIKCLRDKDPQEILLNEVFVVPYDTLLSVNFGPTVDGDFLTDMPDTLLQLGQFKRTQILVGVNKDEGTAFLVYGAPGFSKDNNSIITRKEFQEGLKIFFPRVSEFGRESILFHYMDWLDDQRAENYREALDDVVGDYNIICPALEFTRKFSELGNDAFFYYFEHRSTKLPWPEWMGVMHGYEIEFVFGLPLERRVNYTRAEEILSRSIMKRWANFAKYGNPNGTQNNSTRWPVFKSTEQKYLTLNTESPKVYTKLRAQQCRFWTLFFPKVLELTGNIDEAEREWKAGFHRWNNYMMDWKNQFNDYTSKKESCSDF
Description: Inhibition of horse serum BChE using butyrylthiocholine chloride as substrate after 15 mins by Ellman's method

Acetylcholinesterase = Acetylcholinesterase (Electrophorus electricus, UniProt O42275)
Sequence of Acetylcholinesterase (O42275 whole entry): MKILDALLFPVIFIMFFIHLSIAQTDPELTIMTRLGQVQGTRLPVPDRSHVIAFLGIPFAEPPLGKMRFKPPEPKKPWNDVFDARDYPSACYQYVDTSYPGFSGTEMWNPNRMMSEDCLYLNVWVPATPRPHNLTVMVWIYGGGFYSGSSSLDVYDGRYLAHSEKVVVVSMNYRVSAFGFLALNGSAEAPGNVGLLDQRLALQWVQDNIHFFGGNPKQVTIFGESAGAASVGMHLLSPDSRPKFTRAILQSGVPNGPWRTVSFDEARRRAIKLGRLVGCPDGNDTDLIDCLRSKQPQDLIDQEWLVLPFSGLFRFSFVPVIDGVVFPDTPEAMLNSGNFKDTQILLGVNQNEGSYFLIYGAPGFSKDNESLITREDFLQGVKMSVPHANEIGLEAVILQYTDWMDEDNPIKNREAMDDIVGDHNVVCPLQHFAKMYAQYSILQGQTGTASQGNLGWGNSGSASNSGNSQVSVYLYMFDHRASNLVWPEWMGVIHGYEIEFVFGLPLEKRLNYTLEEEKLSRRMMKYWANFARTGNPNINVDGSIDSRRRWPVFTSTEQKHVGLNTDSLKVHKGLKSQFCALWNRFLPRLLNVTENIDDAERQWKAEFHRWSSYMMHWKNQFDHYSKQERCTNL
Description: Inhibition of electric eel AChE using acetylthiocholine chloride as substrate after 15 mins by Ellman's method

[4] = molecular target: T1, Amine oxidase [flavin-containing] B; settings: read-out: INH
[5] = molecular target: T1, Amine oxidase [flavin-containing] B; settings: 20 min, read-out: INH

| Compound | Ratio IC50 [1] | IC50 [2] [µM] | IC50 [3] [µM] | IC50 (Cholinesterase) [µM] | IC50 (Acetylcholinesterase) [µM] | inhibition at 0.2 µM [4] [%] | inhibition at 0.2 µM [5] [%] |
| --- | --- | --- | --- | --- | --- | --- | --- |
| C#CCN(C)[C@H](C)Cc1ccc(OCCCCCCNc2c3c(nc4cc(Cl)ccc24)CCCC3)cc1 | 1 | 0.519 | 0.521 | 0.0188 | 0.0793 |  |  |
| C#CCN(C)[C@H](C)Cc1ccc(OCCCCCCCCCNc2c3c(nc4ccccc24)CCCC3)cc1 |  |  |  | 0.00937 | 0.0226 | 81.6 | 70.8 |
| C#CCN(C)[C@H](C)Cc1ccc(OCCCNc2c3c(nc4ccccc24)CCCC3)cc1 | 9.7 | 4.46 | 43.4 | 0.0414 | 0.0361 |  |  |
| C#CCN(C)[C@H](C)Cc1ccc(OCCCCCCNc2c3c(nc4ccccc24)CCCC3)cc1 | 1.9 | 0.209 | 0.398 | 0.0161 | 0.138 |  |  |
| C#CCN(C)[C@H](C)Cc1ccc(OCCCCCNc2c3c(nc4cc(Cl)ccc24)CCCC3)cc1 | 0.5 | 6.21 | 2.86 | 0.0186 | 0.082 |  |  |
| C#CCN(C)[C@H](C)Cc1ccc(OCCCCCNc2c3c(nc4ccccc24)CCCC3)cc1 | 0.5 | 2.4 | 1.26 | 0.0235 | 0.0776 |  |  |
| C#CCN(CCCCCCNc1c2c(nc3ccccc13)CCCC2)[C@H](C)Cc1ccc(OC)cc1 | 1.9 | 18.1 | 33.8 | 0.0287 | 0.456 |  |  |
| C#CCN(C)[C@H](C)Cc1ccc(OCCNc2c3c(nc4ccccc24)CCCC3)cc1 | 7 | 0.693 | 4.86 | 0.0506 | 0.0831 |  |  |
| C#CCN(C)[C@H](C)Cc1ccc(OCCCNc2c3c(nc4cc(Cl)ccc24)CCCC3)cc1 | 0.8 | 11.1 | 9.05 | 0.066 | 0.0142 |  |  |
| C#CCN(C)[C@H](C)Cc1ccc(OCCCCNc2c3c(nc4ccccc24)CCCC3)cc1 | 0.8 | 8.55 | 7 | 0.0396 | 0.053 |  |  |
| C#CCN(C)[C@H](C)Cc1ccc(OCCCCCCCCNc2c3c(nc4cc(Cl)ccc24)CCCC3)cc1 | 1.5 | 0.129 | 0.193 | 0.0176 | 0.0554 |  |  |
| C#CCN(C)[C@H](C)Cc1ccc(OCCCCCCCCNc2c3c(nc4ccccc24)CCCC3)cc1 | 3.5 | 0.167 | 0.591 | 0.0355 | 0.147 |  |  |
| C#CCN(C)[C@H](C)Cc1ccc(OCCCCCCCCCCNc2c3c(nc4ccccc24)CCCC3)cc1 | 0.9 | 0.346 | 0.313 | 0.00203 | 0.0232 |  |  |

Source: ChEMBL document CHEMBL2331140, “A novel series of tacrine-selegiline hybrids with cholinesterase and monoamine oxidase inhibition activities for the treatment of Alzheimer's disease” (Eur J Med Chem, 2013)
